Here are results for 15 molecules from US20060287247A1, “Halogen-substituted thienyl compounds” (priority 2001, published 2006).

The test system of one experiment is S. aureus ATCC 29213. In words: NCCLS broth microdilution MIC. The conditions noted are these: for Minimum Inhibitory Concentration (MIC): A = S. aureus ATCC 29213. The class given is cell-based, Staphylococcus aureus. How it is done:
(§1) Compounds according to this invention were screened for their in vitro activities against selected species of bacteria and fungi. The minimal inhibition concentration (MIC) of these compounds was determined using the National Committee for Clinical Laboratory Standards (NCCLS) broth microdilution assay in microtiter plates, as set forth in: (1) the guidelines of the National Committee for Clinical Laboratory Standards (NCCLS) Document M7-A4 (NCCLS, 1997); (2) the guidelines of the National Committee for Clinical Laboratory Standards (NCCLS) Document M11-A4 (NCCLS, 1997); and (3) the guidelines and reference method of the National Committee for Clinical Laboratory Standards (NCCLS) Document M27-T (NCCLS, 1995). For antifungal essays, the method recommended in Murray, P R., 1995 Manual of Clinical Microbiology (ASM Press, Washington, D.C.), was employed. […]

For another experiment, the system named is B. cereus ATCC 11778. In words: NCCLS broth microdilution MIC. In kind it is cell-based, Bacillus cereus. Particulars: for Minimum Inhibitory Concentration (MIC): C = B. cereus ATCC 11778. How it is done:
as §1

A further experiment relates to E. faecalis ATCC 29212. In words: NCCLS broth microdilution MIC. The class given is cell-based, Enterococcus faecalis. Particulars: for Minimum Inhibitory Concentration (MIC): B = E. faecalis ATCC 29212. The method, then:
as §1

The next experiment concerns S. pneumoniae ATCC 49619. The experiment is described as follows: NCCLS broth microdilution MIC. In kind it is cell-based, Streptococcus pneumoniae. Particulars: for Minimum Inhibitory Concentration (MIC): F = S. pneumoniae ATCC 49619. The method, then:
as §1

Another experiment has as its system C. albicans ATCC 38247. The experiment is described as follows: NCCLS broth microdilution MIC (antifungal). In kind it is cell-based. The conditions noted are these: for Minimum Inhibitory Concentration (MIC): E = C. albicans ATCC 38247. How it is done:
as §1

Another experiment deals with E. coli ATCC 25922. The experiment is described as follows: NCCLS broth microdilution MIC. The class given is cell-based. Particulars: for Minimum Inhibitory Concentration (MIC): D = E. coli ATCC 25922. The method, then: as §1

≈ marks a conversion by molar mass, not a printed value.

Take `CCNCCNC(=O)CCNC(=O)c1cc(NC(=O)c2cc(NC(=O)CCNC(=O)c3cc(NC(=O)c4cc(NC(=O)c5cc(Br)c(Br)s5)cn4C)cn3C)cn2C)cn1C` [Id-12]: the “Minimum Inhibitory Concentration (MIC)” value was “+++ (+++ = MIC ≦4)” with S. aureus ATCC 29213; “+++ (+++ = MIC ≦4)” in the experiment on B. cereus ATCC 11778; “+++ (+++ = MIC ≦4)” with E. faecalis ATCC 29212; “+++ (+++ = MIC ≦4)” in the experiment with S. pneumoniae ATCC 49619; above 32 mg/L in the experiment on C. albicans ATCC 38247; above 32 mg/L in the experiment on E. coli ATCC 25922.
For the molecule `Cn1cc(NC(=O)c2cc(NC(=O)c3cc(NC(=O)c4sccc4Cl)cn3C)cn2C)cc1C(=O)NCCN1CCOCC1` [Ie-6], the “Minimum Inhibitory Concentration (MIC)” value was “+++ (+++ = MIC ≦4)” with S. aureus ATCC 29213; “+++ (+++ = MIC ≦4)” with B. cereus ATCC 11778; “+++ (+++ = MIC ≦4)” in the experiment on E. faecalis ATCC 29212; “+++ (+++ = MIC ≦4)” in the experiment on S. pneumoniae ATCC 49619; above 32 mg/L with C. albicans ATCC 38247; above 32 mg/L with E. coli ATCC 25922.
Turning to `Cn1cc(NC(=O)c2cc(NC(=O)CCNC(=O)c3cc(NC(=O)c4cc(NC(=O)c5ccc(Br)s5)cn4C)cn3C)cn2C)cc1C(=O)NCCC(=O)NCc1cccnc1` [Id-23], the “Minimum Inhibitory Concentration (MIC)” value in the experiment on S. aureus ATCC 29213 is above 32 mg/L; with B. cereus ATCC 11778, above 32 mg/L; with E. faecalis ATCC 29212, “+++ (+++ = MIC ≦4)”; in the experiment with S. pneumoniae ATCC 49619, “+++ (+++ = MIC ≦4)”; in the experiment on C. albicans ATCC 38247 it was above 32 mg/L; with E. coli ATCC 25922, above 32 mg/L.
For `Cn1cc(NC(=O)c2cc(NC(=O)CCNC(=O)c3cc(NC(=O)c4cc(NC(=O)c5ccc(Br)s5)cn4C)cn3C)cn2C)cc1C(=O)NCCC(=O)NCC(C)(C)CN` [Id-20], the “Minimum Inhibitory Concentration (MIC)” value in the experiment with S. aureus ATCC 29213 was above 32 mg/L; with B. cereus ATCC 11778, above 32 mg/L; with E. faecalis ATCC 29212 it was above 32 mg/L; with S. pneumoniae ATCC 49619, “+++ (+++ = MIC ≦4)”; with C. albicans ATCC 38247, above 32 mg/L; in the experiment on E. coli ATCC 25922, above 32 mg/L.
Take `Cn1cc(NC(=O)c2cc(NC(=O)CCNC(=O)c3cc(NC(=O)c4cc(NC(=O)c5cc(Br)c(Br)s5)cn4C)cn3C)cn2C)cc1C(=O)NCCC(=O)NCCCN` [Id-9]: the “Minimum Inhibitory Concentration (MIC)” value was “+++ (+++ = MIC ≦4)” in the experiment with S. aureus ATCC 29213; “+++ (+++ = MIC ≦4)” with B. cereus ATCC 11778; “+++ (+++ = MIC ≦4)” with E. faecalis ATCC 29212; “+++ (+++ = MIC ≦4)” with S. pneumoniae ATCC 49619; above 32 mg/L in the experiment with C. albicans ATCC 38247; above 32 mg/L with E. coli ATCC 25922.
Regarding `Cn1cc(NC(=O)c2cc(NC(=O)c3cc(NC(=O)c4ccc(Br)s4)cn3C)cn2C)cc1C(=O)NCCCC(=O)Nc1cn(C)c(C(=O)Nc2cc(C(=O)Nc3cc(C(=O)Nc4cc(C(=O)NCCC(=O)NCCCN5CCNCC5)n(C)c4)n(C)c3)n(C)c2)n1` [If-2], the “Minimum Inhibitory Concentration (MIC)” value with S. aureus ATCC 29213, in the experiment on B. cereus ATCC 11778, in the experiment with E. faecalis ATCC 29212, in the experiment on S. pneumoniae ATCC 49619, with C. albicans ATCC 38247 and in the experiment on E. coli ATCC 25922 was above 32 mg/L throughout.
For the molecule `CN(C)CCCNC(=O)c1cc(NC(=O)c2cc(NC(=O)c3cc(NC(=O)c4sccc4F)cn3C)cn2C)cn1C` [Ie-4], the “Minimum Inhibitory Concentration (MIC)” value in the experiment on S. aureus ATCC 29213 is “++ (++ = MIC between 4 and 12)”; in the experiment with B. cereus ATCC 11778, “+ (+ = MIC from 12 to 32, inclusive)”; in the experiment with E. faecalis ATCC 29212, “++ (++ = MIC between 4 and 12)”; in the experiment with S. pneumoniae ATCC 49619, “+++ (+++ = MIC ≦4)”; in the experiment with C. albicans ATCC 38247, above 32 mg/L; in the experiment on E. coli ATCC 25922 it was above 32 mg/L.
As for `CN(C)CCCNC(=O)CCNC(=O)c1cc(NC(=O)c2cc(NC(=O)CCNC(=O)c3cc(NC(=O)c4cc(NC(=O)c5sccc5F)cn4C)cn3C)cn2C)cn1C` [Id-30], the “Minimum Inhibitory Concentration (MIC)” value in the experiment with S. aureus ATCC 29213 is above 32 mg/L; in the experiment with B. cereus ATCC 11778 it was above 32 mg/L; with E. faecalis ATCC 29212, above 32 mg/L; in the experiment on S. pneumoniae ATCC 49619 it was “++ (++ = MIC between 4 and 12)”; in the experiment with C. albicans ATCC 38247 it was above 32 mg/L; in the experiment on E. coli ATCC 25922, above 32 mg/L.
Consider `Cn1cc(NC(=O)c2cc(NC(=O)c3cc(NC(=O)c4sccc4F)cn3C)cn2C)cc1C(=O)NCCN1CCOCC1` [Ie-5], for which the “Minimum Inhibitory Concentration (MIC)” value in the experiment on S. aureus ATCC 29213 is “+++ (+++ = MIC ≦4)”; in the experiment on B. cereus ATCC 11778 it was “+++ (+++ = MIC ≦4)”; in the experiment with E. faecalis ATCC 29212, above 32 mg/L; in the experiment on S. pneumoniae ATCC 49619, “+++ (+++ = MIC ≦4)”; in the experiment on C. albicans ATCC 38247, above 32 mg/L; in the experiment on E. coli ATCC 25922, above 32 mg/L.
Consider `Cn1cc(NC(=O)c2cc(NC(=O)CCNC(=O)c3cc(NC(=O)c4cc(NC(=O)c5cc(Br)c(Br)s5)cn4C)cn3C)cn2C)cc1C(=O)NCCC(=O)NCCCN1CCNCC1` [Id-13], for which the “Minimum Inhibitory Concentration (MIC)” value in the experiment on S. aureus ATCC 29213, in the experiment with B. cereus ATCC 11778, in the experiment with E. faecalis ATCC 29212, in the experiment on S. pneumoniae ATCC 49619, in the experiment with C. albicans ATCC 38247 and in the experiment on E. coli ATCC 25922 was above 32 mg/L in each case.
As for `CN(C)CCCNC(=O)CCNC(=O)c1cc(NC(=O)c2cc(NC(=O)c3cc(NC(=O)c4nc(NC(=O)CCCNC(=O)c5cc(NC(=O)c6cc(NC(=O)c7cc(NC(=O)c8cc(Br)c(Br)s8)cn7C)cn6C)cn5C)cn4C)cn3C)cn2C)cn1C` [If-1], the “Minimum Inhibitory Concentration (MIC)” value with S. aureus ATCC 29213, in the experiment with B. cereus ATCC 11778, in the experiment with E. faecalis ATCC 29212, in the experiment with S. pneumoniae ATCC 49619, with C. albicans ATCC 38247 and in the experiment on E. coli ATCC 25922 was above 32 mg/L each time.
For `Cn1cc(NC(=O)c2cc(NC(=O)CCNC(=O)c3cc(NC(=O)c4cc(NC(=O)c5cc(Br)c(Br)s5)cn4C)cn3C)cn2C)cc1C(=O)NCCC(=O)NCCCCN` [Id-8], the “Minimum Inhibitory Concentration (MIC)” value with S. aureus ATCC 29213 is above 32 mg/L; in the experiment on B. cereus ATCC 11778, above 32 mg/L; with E. faecalis ATCC 29212, “+++ (+++ = MIC ≦4)”; with S. pneumoniae ATCC 49619 it was “+++ (+++ = MIC ≦4)”; in the experiment on C. albicans ATCC 38247 it was above 32 mg/L; in the experiment with E. coli ATCC 25922, above 32 mg/L.
On to `Cn1cc(NC(=O)c2cc(NC(=O)CCNC(=O)c3cc(NC(=O)c4cc(NC(=O)c5cc(Br)c(NCCCN)s5)cn4C)cn3C)cn2C)cc1C(=O)NCCC(=O)NCCCN` [Id-25], for which the “Minimum Inhibitory Concentration (MIC)” value in the experiment with S. aureus ATCC 29213 was “+ (+ = MIC from 12 to 32, inclusive)”; with B. cereus ATCC 11778, “+++ (+++ = MIC ≦4)”; in the experiment on E. faecalis ATCC 29212, “+ (+ = MIC from 12 to 32, inclusive)”; with S. pneumoniae ATCC 49619, “+++ (+++ = MIC ≦4)”; in the experiment on C. albicans ATCC 38247, above 32 mg/L; in the experiment with E. coli ATCC 25922, above 32 mg/L.
Consider `Cc1csc(C(=O)Nc2cc(C(=O)Nc3cc(C(=O)Nc4cc(C(=O)NCCN5CCOCC5)n(C)c4)n(C)c3)n(C)c2)c1Cl` [Ie-11], for which the “Minimum Inhibitory Concentration (MIC)” value with S. aureus ATCC 29213 is “+++ (+++ = MIC ≦4)”; in the experiment on B. cereus ATCC 11778, “+++ (+++ = MIC ≦4)”; with E. faecalis ATCC 29212, “+++ (+++ = MIC ≦4)”; with S. pneumoniae ATCC 49619, “+++ (+++ = MIC ≦4)”; in the experiment with C. albicans ATCC 38247, above 32 mg/L; with E. coli ATCC 25922, above 32 mg/L.
Consider `Cn1cc(NC(=O)c2cc(NC(=O)c3cc(NC=O)cn3C)cn2C)cc1C(=O)NCCC(=N)N` [Distamycin, distamycin, reference compound], for which the MIC in the experiment with S. aureus ATCC 29213 (Staphylococcus aureus, ATCC29213, read-out: Minimum Inhibitory Concentration (MIC)) was 12 to 32 mg/L (≈ 24.9 to 66.5 µM); with B. cereus ATCC 11778 (Bacillus cereus, ATCC11778, read-out: Minimum Inhibitory Concentration (MIC)), 4 to 12 mg/L (≈ 8.31 to 24.9 µM); in the experiment on E. faecalis ATCC 29212 (Enterococcus faecalis, ATCC29212, read-out: Minimum Inhibitory Concentration (MIC)) it was 12 to 32 mg/L (≈ 24.9 to 66.5 µM); in the experiment on S. pneumoniae ATCC 49619 (Streptococcus pneumoniae, ATCC49619, read-out: Minimum Inhibitory Concentration (MIC)) it was 12 to 32 mg/L (≈ 24.9 to 66.5 µM); with C. albicans ATCC 38247 (Candida albicans, ATCC38247, read-out: Minimum Inhibitory Concentration (MIC)), above 32 mg/L; with E. coli ATCC 25922 (Escherichia coli, ATCC25922, read-out: Minimum Inhibitory Concentration (MIC)), above 32 mg/L.
